This is an account of results in patent publication US20060264623A1, “DNA-PK inhibitors” (KuDOS Pharmaceuticals Limited, priority 2005, published 2006).

The subject of experiment [1] is HeLa cells. The experiment is described as follows: Survival Enhancement Ratio, clonogenic survival assay after 2 Gray irradiation. The class given is cell-based. The following applies: inhibitor 500 nM. On the procedure: The Survival Enhancement Ratio (SER) is a ratio of the enhancement of cell kill elicited by the DNA-PK inhibitor after 2 Grays of irradiation compared to unirradiated control cells. DNA-PK inhibitors were used at a fixed concentration of 500 nM. Radiation was delivered by a Faxitron 43855D machine at a dose rate of 1 Gy pre minute The SER at 2 Gray irradiation was calculated from the formula: [formula]
The degree of cell killing was monitored by a standard clonogenic survival assay. Briefly, tissue culture treated 6-well plates were seeded with HeLa cells at an appropriate concentration to give 100-200 colonies per well and returned to the incubator in order to allow the cells to attach. Four hours later, compound or vehicle control was added to the cells. The cells were then incubated for 1 hour in the presence of inhibitor prior to irradiation at 2 Gray using a Faxitron 43855D cabinet X-ray machine. The cells were then incubated for a further 16 hours before the media was replaced with fresh media in the absence of DNA-PK inhibitor. After 8 days, colonies formed were fixed and stained with Giemsa (Sigma, Poole, UK) and scored using an automated colony counter (Oxford Optronics Ltd, Oxford, UK). The data was calculated as described above.

Experiment [2] concerns the target T1, DNA-PK (Homo sapiens, UniProt P78527). The experiment is described as follows: DNA-PK inhibition assay (ELISA, p53 serine 15 phosphorylation of GST-p53N66). It is filed as biochemical, Mammalian (HeLa cell nuclear extract). As for the experimental part:
In order to assess the inhibitory action of the compounds against DNA-PK in vitro, the following assay was used to determine IC50 values.
DNA-PK (250 ng) activity was measured at 30° C., in a final volume of 40 μl, in buffer containing 25 mM Hepes, pH7.4, 12.5 mM MgCl2, 50 mM KCl, 1 mM DTT, 10% Glycerol, 0.1% NP-40 and […] of the substrate GST-p53N66 (the amino terminal 66 amino acid resiudes of human wild type p53 fused to glutathione S-transferase) in polypropylene 96 well plates. To the assay mix, varying concentrations of inhibitor (in DMSO at a final concentration of 1%) were added. After 10 minutes of incubation, ATP was added to give a final concentration of 50 μM along with a 30mer double stranded DNA oligonucleotide (final concentraion of 0.5 ng/ml) to initiate the reaction. After 1 hour with shaking, 150 μl of phosphate buffered saline (PBS) was added to the reaction and 5 μl then transferred to a 96 well opaque white plate containing 45 μl of PBS per well where the GSTp53N66 substrate was allowed to bind to the wells for 1 hour. […] An anti-rabbit HRP conjugated secondary antibody (Pierce) was then employed in the ELISA before the addition of chemiluminescence reagent (NEN Renaissance) to detect the signal as measured by chemiluminescent counting via a TopCount NXT (Packard).
The enzyme activity for each compound is then calculated using the following equation: [formula] […]

The target of experiment [3] is T1, DNA-PK. The conditions noted are these: in vitro; read-out: IC50 towards DNA-PK; cited from earlier work.
In experiment [4] the test system is cells. The conditions noted are these: cited from earlier work.
The target of experiment [5] is PI 3-kinase. The conditions noted are these: stated to be the same as for DNA-PK; cited from earlier work.

In general, IC50 refers to the concentration at which inhibition is half-maximal.

Like-named read-outs stand apart in the source and are kept apart here.

In the case of `O=c1cc(N2CCOCC2)oc2c(-c3cccc(-c4ccccc4)c3)cccc12`, in experiment [1], the “SER (Survival Enhancement Ratio)” value stood at 1.5. Besides, the IC50 in experiment [2] is 0.76 µM.

Consider `O=c1cc(N2CCOCC2)oc2c(-c3ccccc3)cccc12` [LY294002], for which the IC50 in experiment [3] and in experiment [5] was roughly 1 µM each time. Besides, the “sensitisation of cells to the effects of IR” value in experiment [4] is “weakly sensitise”.
